Data on five compounds can be found in ChEMBL document CHEMBL5226381, “Iterative Methylation Leads to 3-Methylchuangxinmycin Production in Actinoplanes tsinanensis CPCC 200056” (2023).

Broadly, the MIC is the lowest concentration that inhibits growth of the organism.

Values after ≈ are worked out from the molar mass of the structure shown. Active and inactive are the calls of the source. The rule behind the calls is not given here.

Experiment [1] deals with Mycobacterium tuberculosis. Briefly: Antitubercular activity against INH/RIF-sensitive Mycobacterium tuberculosis clinical isolate S17 assessed as inhibition of bacterial growth incubated for 7 to 10 days by Alamar Blue staining based analysis. It is filed as functional. The settings on record: time 7-10 day.
For experiment [2], the system named is Mycobacterium tuberculosis. Briefly: Antitubercular activity against INH/RIF-sensitive Mycobacterium tuberculosis clinical isolate S23 assessed as inhibition of bacterial growth incubated for 7 to 10 days by Alamar Blue staining based analysis. As to conditions: time 7-10 day. It is filed as functional. (The colour change of resazurin is a common sign of viable cells or microbes.)

For experiment [3], the system named is Mycobacterium tuberculosis. Briefly: Antitubercular activity against Mycobacterium tuberculosis H37Rv assessed as inhibition of bacterial growth incubated for 7 to 10 days by Alamar Blue staining based analysis. It is filed as functional. The settings on record: time 7-10 day.
For experiment [4], the system named is Praffidenbacterium reggii. Kind of experiment: Antibacterial activity against […] ATCC 31052 assessed as inhibition of bacterial growth incubated for 18 hrs by agar dilution method. It is filed as functional. On the technique in general: In agar dilution the substance is mixed into plates at graded concentrations.
Another experiment relates to Proteus mirabilis. Kind of experiment: Antibacterial activity against Proteus mirabilis ATCC 49565 assessed as inhibition of bacterial growth incubated for 18 hrs by agar dilution method. The experiment is classed as functional, organism-based.
The subject of experiment [5] is Escherichia coli. Kind of experiment: Antibacterial activity against Escherichia coli ATCC 25922 assessed as inhibition of bacterial growth incubated for 18 hrs by agar dilution method. It is filed as functional, organism-based.
In experiment [6] the test system is Stenotrophomonas maltophilia. Kind of experiment: Antibacterial activity against Pseudomonas maltophilia ATCC 13636 assessed as inhibition of bacterial growth incubated for 18 hrs by agar dilution method. It is filed as functional, organism-based.
Experiment [7] deals with Escherichia coli. Kind of experiment: Antibacterial activity against Escherichia coli ATCC 2469 assessed as inhibition of bacterial growth incubated for 18 hrs by agar dilution method. The experiment is classed as functional, organism-based.
In another experiment the test system is Serratia marcescens. Briefly: Antibacterial activity against Serratia marcescens ATCC 21074 assessed as inhibition of bacterial growth incubated for 18 hrs by agar dilution method. It is filed as functional, organism-based.
The next experiment has as its system Enterobacter cloacae. Briefly: Antibacterial activity against Enterobacter cloacae ATCC 43560 assessed as inhibition of bacterial growth incubated for 18 hrs by agar dilution method. The experiment is classed as functional, organism-based.
Experiment [8] relates to Klebsiella pneumoniae. Kind of experiment: Antibacterial activity against Klebsiella pneumoniae ATCC BAA-2146 assessed as inhibition of bacterial growth incubated for 18 hrs by agar dilution method. The experiment is classed as functional, organism-based.
Another experiment deals with Shigella flexneri. Kind of experiment: Antibacterial activity against Shigella flexneri ATCC 12022 assessed as inhibition of bacterial growth incubated for 18 hrs by agar dilution method. It is filed as functional, organism-based.
Experiment [9] relates to Escherichia coli. Kind of experiment: Antibacterial activity against Escherichia coli 16-1 assessed as inhibition of bacterial growth incubated for 18 hrs by agar dilution method. It is filed as functional, organism-based.
Another experiment relates to Pseudomonas aeruginosa. Kind of experiment: Antibacterial activity against Pseudomonas aeruginosa ATCC 27853 assessed as inhibition of bacterial growth incubated for 18 hrs by agar dilution method. The experiment is classed as functional, organism-based.
The next experiment relates to Acinetobacter baumannii. Briefly: Antibacterial activity against Acinetobacter baumannii ATCC 19606 assessed as inhibition of bacterial growth incubated for 18 hrs by agar dilution method. The experiment is classed as functional, organism-based.
For experiment [10], the system named is Escherichia coli. Briefly: Antibacterial activity against Escherichia coli ATCC 35218 assessed as inhibition of bacterial growth incubated for 18 hrs by agar dilution method. It is filed as functional, organism-based.
The next experiment has as its system Klebsiella aerogenes. Kind of experiment: Antibacterial activity against Enterobacter aerogenes ATCC 13048 assessed as inhibition of bacterial growth incubated for 18 hrs by agar dilution method. It is filed as functional, organism-based.
For experiment [11], the system named is Klebsiella pneumoniae. Briefly: Antibacterial activity against Klebsiella pneumoniae ATCC 700603 assessed as inhibition of bacterial growth incubated for 18 hrs by agar dilution method. It is filed as functional, organism-based.

For `O=C(O)[C@H]1Cc2c[nH]c3cccc(c23)S1`, the figures for the MIC in experiment [1], in experiment [2] and in [3] were 0.78 µg/mL (≈ 3.56 µM), 0.78 µg/mL (≈ 3.56 µM) and 4 µg/mL (≈ 18.2 µM), respectively.

With `CC1(C)c2c[nH]c3cccc(c23)S[C@H]1C(=O)O`, the MIC in experiment [1] was 50 µg/mL (≈ 202 µM); in experiment [2] it was 12.5 µg/mL (≈ 50.5 µM); in [3], 32 µg/mL (≈ 129 µM). Besides, the outcome (in experiment [4]; in the experiment with Proteus mirabilis; in the experiment on Escherichia coli [5]; in experiment [6]; in the experiment on Escherichia coli [7]; in the experiment on Serratia marcescens) was inactive. Moreover, the result in the experiment on Enterobacter cloacae, in the experiment with Klebsiella pneumoniae [8], in the experiment with Shigella flexneri, in the experiment on Escherichia coli [9], with Pseudomonas aeruginosa and with Acinetobacter baumannii was inactive. The outcome with Escherichia coli [10], with Klebsiella aerogenes and with Klebsiella pneumoniae [11] was inactive.

On to `C[C@H]1c2c[nH]c3cccc(c23)S[C@H]1C(=O)O` [CHUANGXINMYCIN], for which the MIC was determined as 0.78 µg/mL (≈ 3.34 µM) in experiment [1], 0.78 µg/mL (≈ 3.34 µM) in experiment [2] and 1 µg/mL (≈ 4.29 µM) in experiment [3]. The outcome (in experiment [4]; in the experiment on Proteus mirabilis; in the experiment on Escherichia coli [5]; in experiment [6]; in the experiment with Escherichia coli [7]; in the experiment with Serratia marcescens) was inactive. Besides, the outcome in the experiment on Enterobacter cloacae, in the experiment on Klebsiella pneumoniae [8], in the experiment on Escherichia coli [9], in the experiment on Pseudomonas aeruginosa, with Acinetobacter baumannii and with Escherichia coli [10] was inactive. Also, the outcome in the experiment on Klebsiella aerogenes and in the experiment with Klebsiella pneumoniae [11] was inactive.

Take `NNC(=O)c1ccncc1` [ISONIAZID]: the MIC in experiment [1] stood at 0.125 µg/mL (≈ 0.911 µM); in experiment [2], 0.125 µg/mL (≈ 0.911 µM); in [3], 0.06 µg/mL (≈ 0.438 µM).

`CO[C@H]1/C=C/O[C@@]2(C)Oc3c(C)c(O)c4c(O)c(c(/C=N/N5CCN(C)CC5)c(O)c4c3C2=O)NC(=O)/C(C)=C\C=C\[C@H](C)[C@H](O)[C@@H](C)[C@@H](O)[C@@H](C)[C@H](OC(C)=O)[C@@H]1C` [RIFAMPIN]: the MIC in experiment [1], in experiment [2] and in experiment [3] was 0.25 µg/mL (≈ 0.304 µM) each time.
